Experimental data from patent publication US9956204B2, “Composition for exterminating scuticociliates in fish including mebendazole” (NATIONAL INSTITUTE OF FISHERIES SCIENCE, priority 2016, dated 2018).

Experiments:
scuticociliates [1] = assay: Scuticociliates extermination effect of candidate substances in seawater medium; format: cell-based; settings: seawater medium, 4 hour
Description: For this, scuticociliates were cultured in CHSE-214 cell line (using MEM medium), and then scuticociliates were collected and centrifuged with sterilized seawater or artificial seawater (20‰) to replace them with a seawater medium. Each of 100 μl (1×10^5) was dispensed into each well of 96 wells, followed by further culture for 30 minutes. The candidate substances diluted in seawater to have a volume of 100 μl per each concentration were mixed with scuticociliates to have the final volume of 200 μl and cultured for 4 hour.

scuticociliates [2] = assay: Scuticociliates extermination effect of candidate substances in MEM medium; format: cell-based; settings: MEM medium
Description: CHSE-214 cell line into which scuticociliates were inoculated was cultured in advance. The CHSE-214 cell line was cultured in an incubator using an MEM medium at 22° C. Scuticociliates inoculated into the cell line proliferated for 3 days by which the number reaches to be capable of analyzing in vitro anti-scuticociliates effect. Scuticociliates that feed on the cell line and sufficiently grow were mixed with the candidate substance and the activity of scuticociliates was measured.
In order to analyze the antiparasitic activity of the above 19 types of candidate substances of scuticociliates extermination drugs, scuticociliates were cultured for 3 days, and 100 μl (1×10^5) was dispensed into each well of 96 wells. The candidate substances were diluted by each concentration and the final volume was dispensed into 100 μl. Thereafter, the two were mixed and finally made into 200 μl.

c1ccc([C@H]2CN3CCSC3=N2)cc1 [Levamisol]
Survival or Death of scuticociliates (activity and shape, microscope) (scuticociliates [1]; Dosage 500 ppm): Survival | Survival or Death of scuticociliates (activity and shape, microscope) (scuticociliates [1]; Dosage 1000 ppm): Survival | Survival or Death of scuticociliates (activity and shape, microscope) (scuticociliates [1]; Dosage 1500 ppm): Survival | Survival or Death of scuticociliates (activity and shape, microscope) (scuticociliates [1]; Dosage 2000 ppm): Survival | Survival or Death of scuticociliates (activity and shape, microscope) (scuticociliates [1]; Dosage 2500 ppm): Survival | Survival or Death of scuticociliates (activity and shape, microscope) (scuticociliates [1]; Dosage 3000 ppm): Survival | Survival or Death of scuticociliates (activity and shape, microscope) (scuticociliates [1]; Dosage 3500 ppm): Survival | Survival or Death of scuticociliates (activity and shape, microscope) (scuticociliates [1]; Dosage 4000 ppm): Survival | Survival or Death of scuticociliates (activity and shape, microscope) (scuticociliates [2]; Dosage 500 ppm): Survival | Survival or Death of scuticociliates (activity and shape, microscope) (scuticociliates [2]; Dosage 1000 ppm): Survival | Survival or Death of scuticociliates (activity and shape, microscope) (scuticociliates [2]; Dosage 1500 ppm): Survival | Survival or Death of scuticociliates (activity and shape, microscope) (scuticociliates [2]; Dosage 2000 ppm): Survival | Survival or Death of scuticociliates (activity and shape, microscope) (scuticociliates [2]; Dosage 2500 ppm): Survival | Survival or Death of scuticociliates (activity and shape, microscope) (scuticociliates [2]; Dosage 3000 ppm): Survival | Survival or Death of scuticociliates (activity and shape, microscope) (scuticociliates [2]; Dosage 3500 ppm): Survival | Survival or Death of scuticociliates (activity and shape, microscope) (scuticociliates [2]; Dosage 4000 ppm): Survival

CCCOc1ccc2nc(NC(=O)OC)[nH]c2c1 [Oxibendazole]
Survival or Death of scuticociliates (activity and shape, microscope) (scuticociliates [1]; Dosage 500 ppm): Survival | Survival or Death of scuticociliates (activity and shape, microscope) (scuticociliates [1]; Dosage 1000 ppm): Survival | Survival or Death of scuticociliates (activity and shape, microscope) (scuticociliates [1]; Dosage 1500 ppm): Δ | Survival or Death of scuticociliates (activity and shape, microscope) (scuticociliates [1]; Dosage 2000 ppm): Δ | Survival or Death of scuticociliates (activity and shape, microscope) (scuticociliates [1]; Dosage 2500 ppm): Δ | Survival or Death of scuticociliates (activity and shape, microscope) (scuticociliates [1]; Dosage 3000 ppm): Δ | Survival or Death of scuticociliates (activity and shape, microscope) (scuticociliates [1]; Dosage 3500 ppm): Death | Survival or Death of scuticociliates (activity and shape, microscope) (scuticociliates [1]; Dosage 4000 ppm): Death | Survival or Death of scuticociliates (activity and shape, microscope) (scuticociliates [2]; Dosage 500 ppm): Survival | Survival or Death of scuticociliates (activity and shape, microscope) (scuticociliates [2]; Dosage 1000 ppm): Survival | Survival or Death of scuticociliates (activity and shape, microscope) (scuticociliates [2]; Dosage 1500 ppm): Δ | Survival or Death of scuticociliates (activity and shape, microscope) (scuticociliates [2]; Dosage 2000 ppm): Δ | Survival or Death of scuticociliates (activity and shape, microscope) (scuticociliates [2]; Dosage 2500 ppm): Death | Survival or Death of scuticociliates (activity and shape, microscope) (scuticociliates [2]; Dosage 3000 ppm): Death | Survival or Death of scuticociliates (activity and shape, microscope) (scuticociliates [2]; Dosage 3500 ppm): Death | Survival or Death of scuticociliates (activity and shape, microscope) (scuticociliates [2]; Dosage 4000 ppm): Death

Nc1cc(C(Cl)=C(Cl)Cl)c(S(N)(=O)=O)cc1S(N)(=O)=O [Clorsulon]
Survival or Death of scuticociliates (activity and shape, microscope) (scuticociliates [1]; Dosage 50 ppm): Survival | Survival or Death of scuticociliates (activity and shape, microscope) (scuticociliates [1]; Dosage 250 ppm): Survival | Survival or Death of scuticociliates (activity and shape, microscope) (scuticociliates [1]; Dosage 500 ppm): Survival | Survival or Death of scuticociliates (activity and shape, microscope) (scuticociliates [1]; Dosage 1000 ppm): Survival | Survival or Death of scuticociliates (activity and shape, microscope) (scuticociliates [1]; Dosage 1200 ppm): Survival | Survival or Death of scuticociliates (activity and shape, microscope) (scuticociliates [1]; Dosage 1400 ppm): Survival | Survival or Death of scuticociliates (activity and shape, microscope) (scuticociliates [1]; Dosage 1500 ppm): Death | Survival or Death of scuticociliates (activity and shape, microscope) (scuticociliates [2]; Dosage 500 ppm): Survival | Survival or Death of scuticociliates (activity and shape, microscope) (scuticociliates [2]; Dosage 700 ppm): Survival | Survival or Death of scuticociliates (activity and shape, microscope) (scuticociliates [2]; Dosage 800 ppm): Survival | Survival or Death of scuticociliates (activity and shape, microscope) (scuticociliates [2]; Dosage 900 ppm): Δ | Survival or Death of scuticociliates (activity and shape, microscope) (scuticociliates [2]; Dosage 1000 ppm): Δ | Survival or Death of scuticociliates (activity and shape, microscope) (scuticociliates [2]; Dosage 2000 ppm): Death | Survival or Death of scuticociliates (activity and shape, microscope) (scuticociliates [2]; Dosage 4000 ppm): Death

COC(=O)Nc1nc2ccc([S+]([O-])c3ccccc3)cc2[nH]1 (stereo not drawn) [Oxfendazole]
Survival or Death of scuticociliates (activity and shape, microscope) (scuticociliates [1]; Dosage 10 ppm): Survival | Survival or Death of scuticociliates (activity and shape, microscope) (scuticociliates [1]; Dosage 50 ppm): Survival | Survival or Death of scuticociliates (activity and shape, microscope) (scuticociliates [1]; Dosage 100 ppm): Survival | Survival or Death of scuticociliates (activity and shape, microscope) (scuticociliates [1]; Dosage 200 ppm): Survival | Survival or Death of scuticociliates (activity and shape, microscope) (scuticociliates [1]; Dosage 300 ppm): Survival | Survival or Death of scuticociliates (activity and shape, microscope) (scuticociliates [1]; Dosage 400 ppm): Survival | Survival or Death of scuticociliates (activity and shape, microscope) (scuticociliates [1]; Dosage 500 ppm): Survival | Survival or Death of scuticociliates (activity and shape, microscope) (scuticociliates [1]; Dosage 600 ppm): Survival | Survival or Death of scuticociliates (activity and shape, microscope) (scuticociliates [1]; Dosage 700 ppm): Δ | Survival or Death of scuticociliates (activity and shape, microscope) (scuticociliates [1]; Dosage 800 ppm): Δ | Survival or Death of scuticociliates (activity and shape, microscope) (scuticociliates [1]; Dosage 900 ppm): Δ | Survival or Death of scuticociliates (activity and shape, microscope) (scuticociliates [1]; Dosage 1000 ppm): Death | Survival or Death of scuticociliates (activity and shape, microscope) (scuticociliates [2]; Dosage 10 ppm): Survival | Survival or Death of scuticociliates (activity and shape, microscope) (scuticociliates [2]; Dosage 50 ppm): Survival | Survival or Death of scuticociliates (activity and shape, microscope) (scuticociliates [2]; Dosage 100 ppm): Survival | Survival or Death of scuticociliates (activity and shape, microscope) (scuticociliates [2]; Dosage 200 ppm): Survival | Survival or Death of scuticociliates (activity and shape, microscope) (scuticociliates [2]; Dosage 300 ppm): Survival | Survival or Death of scuticociliates (activity and shape, microscope) (scuticociliates [2]; Dosage 400 ppm): Survival | Survival or Death of scuticociliates (activity and shape, microscope) (scuticociliates [2]; Dosage 500 ppm): Survival | Survival or Death of scuticociliates (activity and shape, microscope) (scuticociliates [2]; Dosage 600 ppm): Survival | Survival or Death of scuticociliates (activity and shape, microscope) (scuticociliates [2]; Dosage 700 ppm): Δ | Survival or Death of scuticociliates (activity and shape, microscope) (scuticociliates [2]; Dosage 800 ppm): Δ | Survival or Death of scuticociliates (activity and shape, microscope) (scuticociliates [2]; Dosage 900 ppm): Δ | Survival or Death of scuticociliates (activity and shape, microscope) (scuticociliates [2]; Dosage 1000 ppm): Death

CC1(C)[C@H](C(=O)O[C@H](C#N)c2cccc(Oc3ccccc3)c2)[C@@H]1C=C(Br)Br [Deltamethrin]
Survival or Death of scuticociliates (activity and shape, microscope) (scuticociliates [1]; Dosage 250 ppm): Survival | Survival or Death of scuticociliates (activity and shape, microscope) (scuticociliates [1]; Dosage 500 ppm): Survival | Survival or Death of scuticociliates (activity and shape, microscope) (scuticociliates [1]; Dosage 1000 ppm): Survival | Survival or Death of scuticociliates (activity and shape, microscope) (scuticociliates [1]; Dosage 1200 ppm): Death | Survival or Death of scuticociliates (activity and shape, microscope) (scuticociliates [1]; Dosage 1400 ppm): Death | Survival or Death of scuticociliates (activity and shape, microscope) (scuticociliates [1]; Dosage 1500 ppm): Death | Survival or Death of scuticociliates (activity and shape, microscope) (scuticociliates [2]; Dosage 500 ppm): Survival | Survival or Death of scuticociliates (activity and shape, microscope) (scuticociliates [2]; Dosage 600 ppm): Survival | Survival or Death of scuticociliates (activity and shape, microscope) (scuticociliates [2]; Dosage 700 ppm): Survival | Survival or Death of scuticociliates (activity and shape, microscope) (scuticociliates [2]; Dosage 800 ppm): Survival | Survival or Death of scuticociliates (activity and shape, microscope) (scuticociliates [2]; Dosage 900 ppm): Survival | Survival or Death of scuticociliates (activity and shape, microscope) (scuticociliates [2]; Dosage 1000 ppm): Δ | Survival or Death of scuticociliates (activity and shape, microscope) (scuticociliates [2]; Dosage 2000 ppm): Death | Survival or Death of scuticociliates (activity and shape, microscope) (scuticociliates [2]; Dosage 5000 ppm): Death

CC[C@H](C)[C@H]1O[C@]2(C=C[C@@H]1C)C[C@@H]1C[C@@H](C/C=C(\C)[C@@H](O[C@H]3C[C@H](OC)[C@@H](O[C@H]4C[C@H](OC)[C@@H](O)[C@H](C)O4)[C@H](C)O3)[C@@H](C)/C=C/C=C3\CO[C@@H]4[C@H](O)C(C)=C[C@@H](C(=O)O1)[C@]34O)O2 [Abamectin]
Survival or Death of scuticociliates (activity and shape, microscope) (scuticociliates [1]; Dosage 500 ppm): Survival | Survival or Death of scuticociliates (activity and shape, microscope) (scuticociliates [1]; Dosage 800 ppm): Death | Survival or Death of scuticociliates (activity and shape, microscope) (scuticociliates [1]; Dosage 900 ppm): Death | Survival or Death of scuticociliates (activity and shape, microscope) (scuticociliates [1]; Dosage 1000 ppm): Death | Survival or Death of scuticociliates (activity and shape, microscope) (scuticociliates [1]; Dosage 1500 ppm): Death | Survival or Death of scuticociliates (activity and shape, microscope) (scuticociliates [1]; Dosage 2000 ppm): Death | Survival or Death of scuticociliates (activity and shape, microscope) (scuticociliates [2]; Dosage 10 ppm): Survival | Survival or Death of scuticociliates (activity and shape, microscope) (scuticociliates [2]; Dosage 20 ppm): Survival | Survival or Death of scuticociliates (activity and shape, microscope) (scuticociliates [2]; Dosage 50 ppm): Survival | Survival or Death of scuticociliates (activity and shape, microscope) (scuticociliates [2]; Dosage 100 ppm): Survival | Survival or Death of scuticociliates (activity and shape, microscope) (scuticociliates [2]; Dosage 150 ppm): Survival | Survival or Death of scuticociliates (activity and shape, microscope) (scuticociliates [2]; Dosage 200 ppm): Δ | Survival or Death of scuticociliates (activity and shape, microscope) (scuticociliates [2]; Dosage 400 ppm): Death | Survival or Death of scuticociliates (activity and shape, microscope) (scuticociliates [2]; Dosage 500 ppm): Death

CC[C@H](C)[C@H]1O[C@]2(CC[C@@H]1C)C[C@@H]1C[C@@H](C/C=C(\C)[C@@H](O[C@H]3C[C@H](OC)[C@@H](O[C@H]4C[C@H](OC)[C@@H](O)[C@H](C)O4)[C@H](C)O3)[C@@H](C)/C=C/C=C3\CO[C@@H]4[C@H](O)C(C)=C[C@@H](C(=O)O1)[C@]34O)O2 [Ivermectin]
Survival or Death of scuticociliates (activity and shape, microscope) (scuticociliates [1]; Dosage 500 ppm): Survival | Survival or Death of scuticociliates (activity and shape, microscope) (scuticociliates [1]; Dosage 1000 ppm): Survival | Survival or Death of scuticociliates (activity and shape, microscope) (scuticociliates [1]; Dosage 1500 ppm): Survival | Survival or Death of scuticociliates (activity and shape, microscope) (scuticociliates [1]; Dosage 2000 ppm): Survival | Survival or Death of scuticociliates (activity and shape, microscope) (scuticociliates [1]; Dosage 2500 ppm): Survival | Survival or Death of scuticociliates (activity and shape, microscope) (scuticociliates [1]; Dosage 3000 ppm): Survival | Survival or Death of scuticociliates (activity and shape, microscope) (scuticociliates [1]; Dosage 3500 ppm): Survival | Survival or Death of scuticociliates (activity and shape, microscope) (scuticociliates [1]; Dosage 4000 ppm): Survival | Survival or Death of scuticociliates (activity and shape, microscope) (scuticociliates [2]; Dosage 500 ppm): Survival | Survival or Death of scuticociliates (activity and shape, microscope) (scuticociliates [2]; Dosage 1000 ppm): Survival | Survival or Death of scuticociliates (activity and shape, microscope) (scuticociliates [2]; Dosage 1500 ppm): Survival | Survival or Death of scuticociliates (activity and shape, microscope) (scuticociliates [2]; Dosage 2000 ppm): Survival | Survival or Death of scuticociliates (activity and shape, microscope) (scuticociliates [2]; Dosage 2500 ppm): Survival | Survival or Death of scuticociliates (activity and shape, microscope) (scuticociliates [2]; Dosage 3000 ppm): Survival | Survival or Death of scuticociliates (activity and shape, microscope) (scuticociliates [2]; Dosage 3500 ppm): Survival | Survival or Death of scuticociliates (activity and shape, microscope) (scuticociliates [2]; Dosage 4000 ppm): Survival
